Experimental data taken from patent US11364211B2, “Methods for selecting phosphatase selective and non-selective phosphatase inhibitors” (MEDICAL RESEARCH COUNCIL, priority 2015, dated 2022).
“Also recorded” adds a separate entry of the source.

What was measured:
PPP1R15B-PP1 complex = target: T1, PPP1R15B-PP1 complex (Homo sapiens, UniProt Q5SWA1); experiment: SPR steady-state binding to R15B-PP1c holophosphatase on streptavidin chip; conditions: SPR
T1 construct: 340-698 of PPP1R15B were His-tagged and cloned into pMAL-c5x; made in house; host or cells: R15B fragment: E. coli BL21-Gold; BAP-PP1γ: Sf9 insect cells (baculovirus)
T1 sequence (Q5SWA1 340-698): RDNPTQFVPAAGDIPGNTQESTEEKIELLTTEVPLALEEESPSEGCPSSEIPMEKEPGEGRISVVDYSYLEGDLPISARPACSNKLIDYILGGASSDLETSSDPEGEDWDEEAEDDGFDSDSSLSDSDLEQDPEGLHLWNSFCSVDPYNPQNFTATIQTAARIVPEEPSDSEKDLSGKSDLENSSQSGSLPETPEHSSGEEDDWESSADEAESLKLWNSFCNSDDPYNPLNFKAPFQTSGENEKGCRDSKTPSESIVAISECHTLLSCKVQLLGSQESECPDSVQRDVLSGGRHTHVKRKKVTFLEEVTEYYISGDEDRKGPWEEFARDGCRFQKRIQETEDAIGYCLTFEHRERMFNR
T1 sequence (P36873 whole entry partner, the tested form may be a part): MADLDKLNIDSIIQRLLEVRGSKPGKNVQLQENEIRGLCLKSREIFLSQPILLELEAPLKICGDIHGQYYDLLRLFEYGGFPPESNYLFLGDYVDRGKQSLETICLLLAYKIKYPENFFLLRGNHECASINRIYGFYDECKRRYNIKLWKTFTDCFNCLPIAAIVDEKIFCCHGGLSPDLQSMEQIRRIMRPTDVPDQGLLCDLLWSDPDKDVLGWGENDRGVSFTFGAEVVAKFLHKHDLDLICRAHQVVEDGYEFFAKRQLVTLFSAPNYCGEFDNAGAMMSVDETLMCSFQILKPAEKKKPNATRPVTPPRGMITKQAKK
Description: The streptavidin coated surface was activated by 1 min injection with a solution of 50 mM NaOH and 1 M NaCl. Biotin-PP1 was diluted in the running buffer (50 mM Tris pH 7.5, 100 mM NaCl, 0.1 mM EGTA, 1 mM MnCl2, 0.05% Tween 20) and injected at approximately 300 nM concentration directly to streptavidin coated surface for 100 sec or to reach immobilization level of biotin-PP1 corresponding to ˜7000 RU. A blank immobilization was performed for one of the SA sensor chip surface to use as a reference.
With minor deviations, the same procedure and conditions were used in all binding experiments. Small molecules were stored as 50 mM stock solutions in 100% DMSO. Prior to determining binding constants, serial dilutions of either 12 or 8 concentrations of the compounds were prepared in the running buffer in a 96-well plate. […] Then, without regenerating the surface, the compound dilution series was injected onto the surface of the chip Sensorgrams were analyzed using the Biacore T200 evaluation software and the binding constants determined based on a steady-state model. Kinetic experiments are carried out using different concentrations of the compound and their respective equilibrium binding levels determined.
Surface Plasmon Resonance (SPR) was used to measure the binding affinity of compounds to the PPP1R15A/B-PP1 phosphatase complex. Biotin acceptor peptide (BAP) was fused to the N-terminus of PP1γ, which enables the biotinylation of the BAP-tagged protein in Sf9 insect cells. After purification the BAP-PP1γ protein was captured on a streptavidin sensor chip (SA-chip, GE healthcare) to a response level of ˜5.000 RU. Using controlled biotinylation enables orientated and uniform immobilization on the sensor chip surface. The PP1γ was then used to capture PPP1R15A/B and form a holophosphatase complex on the surface of the streptavidin chip. This complex can then be used to test binding of compounds. 10 μM PPP1R15A/B protein concentration was used to form the holophosphatase complex during a 80 s injection. […] After the concentration series (8 or 12 concentrations) is completed the surface is regenerated with 3 M NaCl and we can capture R15A/B again to form a fresh holophosphatase complex to measure a binding of another compound concentration series. Analysing the level of equilibrium binding as a function of concentration gives interaction affinities or steady-state binding affinity (KD).
The streptavidin coated surface was activated by 1 minute injection with a solution of 50 mM NaOH and 1 M NaCl three times at a flow rate of 10 μl/min. bio-GBZ or bio-PP1c was diluted in the running buffer (50 mM Tris pH 7.5, 100 mM NaCl, 0.1 mM EGTA, 0.05% Tween 20, 0.1% DMSO) and injected at approximately 300 nM concentration at a flow rate of 10 μl/min directly to streptavidin coated surface to reach immobilization level of bio-GBZ or bio-PP1c corresponding to ˜200 and 6000 RU, respectively. A blank immobilization was performed for one of the SA sensor chip surface to use as a reference.
With minor deviations, the same procedure and conditions were used in all binding experiments. Small molecules were stored as 50 mM stock solutions in 100% DMSO. Prior to determining binding constants, serial dilutions of either 12 or 8 concentrations of the compounds were prepared in the running buffer in a 96-well plate. […] This was followed by 1 minute stabilization period, to wash off any unspecific binding. Then, without regenerating the surface, the compound dilution series was injected onto the surface of the chip at a flow rate of 30 μl/min for 1 minute, followed by 2 minutes dissociation time. After each dilution series the surface was regenerated using 3 M NaCl for 90 seconds. […] In order to be able to correct for small variations in DMSO concentration between samples, eight solvent samples ranging from 0.06 to 8% DMSO were injected every 50th cycle. The flow cell temperature was 10° C.

PP1c = PP1c (Homo sapiens, UniProt P36873); experiment: PP1c catalytic activity assay (EnzChek); assay type: biochemical; conditions: purified PP1c 30 nM, 30 minutes at 4° C.
PP1c, sequence (P36873 whole entry): as the sequence (P36873 whole entry partner, the tested form may be a part) above
Description: Residual activity of PP1c was then measured using the EnzChek Phosphatase Assay Kit (Thermo Fisher Scientific) according to the supplier's instructions.

HeLa cells = experiment: Translation rates by 35S-methionine labelling in HeLa cells; assay type: cell-based, human; conditions: for protein synthesis / translation rates: basal conditions, 10 μM
Description: Cells (90,000 cells/ml) were plated in 12-well plates, treated as indicated, labelled with 100 μCi/ml ^35S-methionine (Hartmann Analytic) for 10 minutes at 37° C., washed with ice-cold PBS and lysed in 120 μl Laemmli Buffer. Lysates were boiled at 95° C. for 5 minutes, sonicated and resolved on 4-12% Bolt Bis-Tris Plus Gels (Thermo Fisher Scientific). Gels were then stained with InstantBlue (Expedeon) and analyzed by phosphorimaging.

[1] = tested on: eIF2α phosphorylation in HeLa cells; experiment: eIF2α phosphorylation in cells in the absence of stress (immunoblot); assay type: cell-based, human; conditions: for eIF2α phosphorylation in the absence of stress: human/HeLa cells, basal conditions, TST3 at 10 μM
Description: For immunoblots, HeLa cells (80,000 cells/ml) were plated in 12-well plates 24 hours before each experiment. Immediately after the indicated treatments, cells were lysed in 75 μl Laemmli Buffer, boiled at 95° C. for 5 minutes and sonicated. Proteins were separated and analysed as described (Tsaytler et al., Science, 332, 91-94, 2011) with the following antibodies: phospho-elf2α [pS52] and PPP1R15A/GADD34 (10449-1-AP; ProteinTech Group, 1/1000 dilution).
Human cells were treated with a PPP1R15B inhibitor and eIF2α phosphorylation was monitored over time. […] This was manifested between 1 and 7.5 hours after addition of the compound of Example 1. […] Indeed, the inventors noticed that PPP1R15A was induced at the late time points following addition of the compound of Example 1 (see Assay 3). […] Furthermore, this establishes that the compound of Example 1 spares PPP1R15A. This assay can serve to identify other selective PPP1R15B inhibitors.
Cells (90,000 cells/ml) were plated in a 24-well plate and treated as indicated. At the end of treatment cells were lysed in 150 μl Laemmli Buffer. Lysates were boiled at 95° C. for 5 minutes, sonicated and resolved on 4-12% Bolt Bis-Tris Plus Gels (Thermo Fisher Scientific). Proteins were transferred to the nitrocellulose membrane using the iBlot 2 system (Thermo Fisher Scientific) and analysed using the following antibodies: e-IF2α-P (44-728G, Thermo Fisher Scientific, 1:1000), e-IF2α (ab5369, Abcam, 1:1000), tubulin (T5168, Sigma-Aldrich, 1:4000), BiP (610978, BD Biosciences Pharmingen, 1:1000), ATF4 (sc-200, Santa Cruz Biotechnology, 1:500), Ppp1r15a (10449-1-AP, Proteintech, 1:1000) and Ppp1r15b (14634-1-AP, Proteintech, 1:1000). Proteins were visualized using ECL Prime (GE Healthcare).

SMILES: [H]/N=C(\N)NN=Cc1cccc(Cl)c1Cl [Example 1, (E)-2-(2,3-dichlorobenzylidene)hydrazine-1-carboximidamide]
- binding to R15B-PP1c (in words) (PPP1R15B-PP1 complex): bound strongly and selectively
- Kd (PPP1R15B-PP1 complex; steady-state affinity): 33 nM
- inhibition of PP1c in enzymatic assay (PP1c; listed as TST3): does not inhibit PP1c; also recorded: doesn't inhibit PP1
- protein synthesis in the presence of GBZ (HeLa cells; TST3+/- GBZ at 10 μM): persistently inhibits protein synthesis; also recorded: rendered persistent
- protein synthesis / translation rates (HeLa cells; listed as TST3): transiently reduces protein synthesis; also recorded: rapidly and transiently decreased
- eIF2α phosphorylation in the presence of GBZ ([1]; HeLa cells, TST3+GBZ at 10 μM): persistently induces eIF2α phosphorylation; also recorded: rendered persistent
- time after addition at which eIF2α phosphorylation returned to basal levels ([1]; absence of stress): 10 h
- eIF2α phosphorylation in the absence of stress [1]: induced eIF2α phosphorylation; also recorded: induces a transient phosphorylation of eIF2α
- eIF2α phosphorylation in the absence of stress ([1]; listed as TST3): transiently induces eIF2α phosphorylation; also recorded: rapidly and transiently increased eIF2α phosphorylation

SMILES: N=C(N)N/N=C/c1c(Cl)cccc1Cl [Guanabenz, reference compound]
- binding to R15B-PP1c (in words) (PPP1R15B-PP1 complex; listed as GBZ): not or weakly; also recorded: no binding was detected
- inhibition of PP1c in enzymatic assay (PP1c): does not inhibit PP1c
- protein synthesis / translation rates (HeLa cells): did not affect
- eIF2α phosphorylation in the absence of stress [1]: did not affect
